The target in the first test is T1, 5-hydroxytryptamine receptor 2A (Homo sapiens, UniProt P28223). The experiment in a line: Binding affinity to 5-HT2A receptor (unknown origin) by radioligand binding assay.
T1 sequence (P28223 whole entry): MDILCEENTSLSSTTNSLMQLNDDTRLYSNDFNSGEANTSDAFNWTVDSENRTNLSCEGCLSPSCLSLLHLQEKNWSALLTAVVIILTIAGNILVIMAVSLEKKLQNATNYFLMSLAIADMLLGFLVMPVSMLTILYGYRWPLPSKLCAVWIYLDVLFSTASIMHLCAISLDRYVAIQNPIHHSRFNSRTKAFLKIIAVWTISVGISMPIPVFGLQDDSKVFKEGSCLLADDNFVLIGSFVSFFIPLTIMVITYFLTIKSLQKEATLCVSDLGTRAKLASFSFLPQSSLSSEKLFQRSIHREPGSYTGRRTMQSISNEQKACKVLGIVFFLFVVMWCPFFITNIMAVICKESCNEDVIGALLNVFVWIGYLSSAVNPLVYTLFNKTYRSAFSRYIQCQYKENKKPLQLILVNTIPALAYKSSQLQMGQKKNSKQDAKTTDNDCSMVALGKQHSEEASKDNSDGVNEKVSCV
T11 sequence (P34969 whole entry): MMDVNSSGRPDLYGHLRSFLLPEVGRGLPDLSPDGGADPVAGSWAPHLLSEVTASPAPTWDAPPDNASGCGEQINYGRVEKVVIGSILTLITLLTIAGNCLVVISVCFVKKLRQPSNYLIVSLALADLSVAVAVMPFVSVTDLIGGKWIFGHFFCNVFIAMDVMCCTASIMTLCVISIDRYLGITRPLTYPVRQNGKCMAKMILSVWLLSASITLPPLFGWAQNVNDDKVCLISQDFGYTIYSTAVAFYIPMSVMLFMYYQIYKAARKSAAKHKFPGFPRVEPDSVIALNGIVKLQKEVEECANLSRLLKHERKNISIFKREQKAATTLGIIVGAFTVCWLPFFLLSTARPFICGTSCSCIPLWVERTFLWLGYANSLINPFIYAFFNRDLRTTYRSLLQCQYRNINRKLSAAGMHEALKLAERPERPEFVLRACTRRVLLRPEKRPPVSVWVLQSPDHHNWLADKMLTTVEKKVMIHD
What is called Ki is the dissociation constant of the complex between target and ligand, obtained from inhibition or displacement. Regarding `NC(=O)C1CSC(c2ccccc2O)=N1` (racemic) [PULICATINS G], the inhibition constant (Ki) is more than 10 µM.
Regarding `OC[C@@H]1CSC(c2ccccc2O)=N1` [AERUGINE], the Ki was more than 10 µM.

A further test deals with T2, 5-hydroxytryptamine receptor 1E (Homo sapiens, UniProt P28566). The test is described as follows: Displacement of [3H]5-HT from human 5-HT1E receptor expressed in HEK cells after 90 mins by microbeta scintillation counting analysis. In kind it is cell-based. For orientation: Loss of bound radioactivity is the signal in a displacement assay; it reports binding, not function.
T2 sequence (P28566 whole entry): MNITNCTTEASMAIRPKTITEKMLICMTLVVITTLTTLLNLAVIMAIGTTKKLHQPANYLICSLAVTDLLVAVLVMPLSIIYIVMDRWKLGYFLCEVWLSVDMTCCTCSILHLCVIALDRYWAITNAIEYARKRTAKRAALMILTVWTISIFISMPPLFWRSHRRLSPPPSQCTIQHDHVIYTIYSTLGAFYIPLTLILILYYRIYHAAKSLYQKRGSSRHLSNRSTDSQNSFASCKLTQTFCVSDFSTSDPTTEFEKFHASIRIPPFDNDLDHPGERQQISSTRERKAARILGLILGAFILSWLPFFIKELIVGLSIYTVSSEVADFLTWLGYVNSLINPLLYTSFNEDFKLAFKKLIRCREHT
As to `COC(=O)[C@H](Cc1cnc[nH]1)NC(=O)[C@@H]1N=C(c2ccccc2O)S[C@@H]1C`, the affinity corresponds to a Ki of 4.6 µM.
Same read-out and setting: next, `Oc1ccccc1C1=NC(Cc2c[nH]cn2)CS1` (racemic): more than 10 µM.

The next test addresses T3, 5-hydroxytryptamine receptor 2C (Homo sapiens, UniProt P28335).
T3 sequence (P28335 whole entry): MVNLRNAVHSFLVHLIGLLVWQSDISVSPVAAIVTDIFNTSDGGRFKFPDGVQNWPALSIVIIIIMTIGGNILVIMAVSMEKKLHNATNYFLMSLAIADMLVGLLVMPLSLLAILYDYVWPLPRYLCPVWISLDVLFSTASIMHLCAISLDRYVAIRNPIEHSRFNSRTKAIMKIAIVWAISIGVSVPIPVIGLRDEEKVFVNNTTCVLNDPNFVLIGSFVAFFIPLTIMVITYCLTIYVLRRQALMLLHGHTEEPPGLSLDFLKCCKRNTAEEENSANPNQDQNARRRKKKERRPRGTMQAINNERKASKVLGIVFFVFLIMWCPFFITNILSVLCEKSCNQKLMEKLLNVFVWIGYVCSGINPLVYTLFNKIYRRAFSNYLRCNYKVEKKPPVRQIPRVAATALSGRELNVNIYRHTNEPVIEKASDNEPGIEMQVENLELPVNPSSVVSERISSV
The test is described as follows: Binding affinity to 5-HT2C receptor (unknown origin) by radioligand binding assay.
On to `NC(=O)C1CSC(c2ccccc2O)=N1` (racemic) [PULICATINS G], for which the Ki was more than 10 µM.
Still for that read-out and setting: next, `OC[C@@H]1CSC(c2ccccc2O)=N1` [AERUGINE]: more than 10 µM.

For another test, the target named is T4, 5-hydroxytryptamine receptor 1D (Homo sapiens, UniProt P28221). The experiment in a line: Binding affinity to 5-HT1D receptor (unknown origin) by radioligand binding assay.
T4 sequence (P28221 whole entry): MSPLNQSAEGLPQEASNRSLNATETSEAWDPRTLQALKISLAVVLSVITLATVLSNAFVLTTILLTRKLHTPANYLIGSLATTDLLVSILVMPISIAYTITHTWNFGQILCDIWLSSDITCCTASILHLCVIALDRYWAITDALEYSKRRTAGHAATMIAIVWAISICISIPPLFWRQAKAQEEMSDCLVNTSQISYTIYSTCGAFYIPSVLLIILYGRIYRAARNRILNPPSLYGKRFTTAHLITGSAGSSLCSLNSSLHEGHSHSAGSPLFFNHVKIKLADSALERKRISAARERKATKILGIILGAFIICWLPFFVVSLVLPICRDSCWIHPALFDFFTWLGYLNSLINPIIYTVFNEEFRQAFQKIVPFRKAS
`NC(=O)C1CSC(c2ccccc2O)=N1` (racemic) [PULICATINS G]: the Ki is more than 10 µM.
Take `OC[C@@H]1CSC(c2ccccc2O)=N1` [AERUGINE]: the Ki is more than 10 µM.

Another test deals with T5, 5-hydroxytryptamine receptor 6 (Homo sapiens, UniProt P50406). The experiment in a line: Displacement of [3H]-LSD from human 5-HT6 receptor expressed in HEK cells after 90 mins by microbeta scintillation counting analysis. In kind it is cell-based.
T5 sequence (P50406 whole entry): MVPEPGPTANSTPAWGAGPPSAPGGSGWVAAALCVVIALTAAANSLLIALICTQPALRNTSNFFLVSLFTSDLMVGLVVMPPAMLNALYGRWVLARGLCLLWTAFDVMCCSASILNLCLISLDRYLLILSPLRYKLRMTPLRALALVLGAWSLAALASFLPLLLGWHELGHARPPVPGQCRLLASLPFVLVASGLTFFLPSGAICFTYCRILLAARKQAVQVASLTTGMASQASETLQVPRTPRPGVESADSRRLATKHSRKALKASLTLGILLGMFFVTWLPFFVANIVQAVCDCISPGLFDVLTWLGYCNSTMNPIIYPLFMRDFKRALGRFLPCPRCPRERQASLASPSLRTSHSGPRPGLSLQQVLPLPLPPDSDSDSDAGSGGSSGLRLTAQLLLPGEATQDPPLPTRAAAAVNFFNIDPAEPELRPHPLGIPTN
Compound `COC(=O)[C@H](Cc1cnc[nH]1)NC(=O)[C@@H]1N=C(c2ccccc2O)S[C@@H]1C` had a Ki of more than 10 µM.
On the same count and under the same terms, next, `Oc1ccccc1C1=NC(Cc2c[nH]cn2)CS1` (racemic): more than 10 µM.

In another test the target is T6, 5-hydroxytryptamine receptor 2B (Homo sapiens, UniProt P41595). The experiment in a line: Antagonist activity at 5-HT2B receptor (unknown origin) by calcium release assay. In kind it is functional.
T6 sequence (P41595 whole entry): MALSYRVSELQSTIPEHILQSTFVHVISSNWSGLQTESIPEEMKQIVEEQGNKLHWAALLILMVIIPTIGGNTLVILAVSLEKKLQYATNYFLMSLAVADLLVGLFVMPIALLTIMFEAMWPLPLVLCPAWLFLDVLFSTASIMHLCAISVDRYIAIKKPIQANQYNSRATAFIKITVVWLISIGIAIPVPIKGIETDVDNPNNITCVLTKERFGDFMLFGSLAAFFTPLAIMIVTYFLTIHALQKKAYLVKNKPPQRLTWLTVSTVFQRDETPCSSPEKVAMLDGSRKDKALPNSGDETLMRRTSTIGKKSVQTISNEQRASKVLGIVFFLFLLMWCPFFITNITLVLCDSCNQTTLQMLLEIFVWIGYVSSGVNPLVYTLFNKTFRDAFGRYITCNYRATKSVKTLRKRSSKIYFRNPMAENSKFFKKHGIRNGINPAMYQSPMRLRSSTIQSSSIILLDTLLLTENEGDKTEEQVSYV
As usually defined, the IC50 is the midpoint of a concentration-inhibition curve. For the compound `COC(=O)[C@H](Cc1cnc[nH]1)NC(=O)[C@@H]1N=C(c2ccccc2O)S[C@@H]1C`, the IC50 was more than 10 µM.

Another test concerns the target T5, 5-hydroxytryptamine receptor 6. The experiment in a line: Binding affinity to 5-HT6 receptor (unknown origin) by radioligand binding assay.
As for `NC(=O)C1CSC(c2ccccc2O)=N1` (racemic) [PULICATINS G], the Ki is more than 10 µM.
On the same count and under the same terms, the result for `OC[C@@H]1CSC(c2ccccc2O)=N1` [AERUGINE] reads more than 10 µM.

The target of another test is T2, 5-hydroxytryptamine receptor 1E. The experiment in a line: Binding affinity to 5-HT1E receptor (unknown origin) by radioligand binding assay.
Consider `NC(=O)C1CSC(c2ccccc2O)=N1` (racemic) [PULICATINS G], for which the Ki is more than 10 µM.
On the same count and under the same terms, next, `OC[C@@H]1CSC(c2ccccc2O)=N1` [AERUGINE]: more than 10 µM.

In the next test the target is T7, 5-hydroxytryptamine receptor 3A (Homo sapiens, UniProt P46098).
T7 sequence (P46098 whole entry): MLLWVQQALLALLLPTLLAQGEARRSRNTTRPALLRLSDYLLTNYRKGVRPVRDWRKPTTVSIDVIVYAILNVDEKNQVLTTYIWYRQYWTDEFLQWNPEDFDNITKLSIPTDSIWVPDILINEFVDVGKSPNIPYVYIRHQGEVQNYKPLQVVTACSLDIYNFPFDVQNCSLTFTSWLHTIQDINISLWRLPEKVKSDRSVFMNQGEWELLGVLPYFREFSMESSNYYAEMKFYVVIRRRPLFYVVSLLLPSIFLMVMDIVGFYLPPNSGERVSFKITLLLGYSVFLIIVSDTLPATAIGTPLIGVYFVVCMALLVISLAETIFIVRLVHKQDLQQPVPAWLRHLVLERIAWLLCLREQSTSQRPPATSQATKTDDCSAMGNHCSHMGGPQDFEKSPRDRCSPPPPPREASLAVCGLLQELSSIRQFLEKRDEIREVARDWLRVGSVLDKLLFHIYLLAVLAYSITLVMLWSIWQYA
The experiment in a line: Displacement of [3H]-GR65630 from human 5-HT3 receptor expressed in HEKT cells after 90 mins by microbeta scintillation counting analysis. In kind it is cell-based.
For the compound `COC(=O)[C@H](Cc1cnc[nH]1)NC(=O)[C@@H]1N=C(c2ccccc2O)S[C@@H]1C`, the inhibitory constant (Ki) came out at 3.1 µM.
`Oc1ccccc1C1=NC(Cc2c[nH]cn2)CS1` (racemic) displayed an inhibition constant Ki of 0.95 µM.

A further test has as its target T7, 5-hydroxytryptamine receptor 3A. The experiment in a line: Binding affinity to 5-HT3 receptor (unknown origin) by radioligand binding assay.
For the compound `NC(=O)C1CSC(c2ccccc2O)=N1` (racemic) [PULICATINS G], the Ki is more than 10 µM.
The compound `OC[C@@H]1CSC(c2ccccc2O)=N1` [AERUGINE] displayed an inhibitory constant (Ki) of more than 10 µM.

In another test the target is T8, 5-hydroxytryptamine receptor 1B (Homo sapiens, UniProt P28222). The test is described as follows: Displacement of [3H]5-CT from human 5-HT1B receptor expressed in HEK cells after 90 mins by microbeta scintillation counting analysis. In kind it is cell-based.
T8 sequence (P28222 whole entry): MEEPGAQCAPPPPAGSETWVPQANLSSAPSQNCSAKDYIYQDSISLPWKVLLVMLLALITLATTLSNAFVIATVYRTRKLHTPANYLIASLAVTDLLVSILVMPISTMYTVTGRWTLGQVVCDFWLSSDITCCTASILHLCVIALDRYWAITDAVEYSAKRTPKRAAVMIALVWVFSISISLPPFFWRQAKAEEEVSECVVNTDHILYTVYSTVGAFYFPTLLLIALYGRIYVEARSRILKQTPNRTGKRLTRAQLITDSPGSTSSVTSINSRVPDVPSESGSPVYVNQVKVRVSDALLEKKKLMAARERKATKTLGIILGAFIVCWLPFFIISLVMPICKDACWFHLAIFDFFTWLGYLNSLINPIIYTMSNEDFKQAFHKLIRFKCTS
In the case of `Oc1ccccc1C1=NC(Cc2c[nH]cn2)CS1` (racemic), the Ki is more than 10 µM.

The target in the next test is T9, 5-hydroxytryptamine receptor 5A (Homo sapiens, UniProt P47898). The experiment in a line: Binding affinity to 5-HT5A receptor (unknown origin) by radioligand binding assay.
T9 sequence (P47898 whole entry): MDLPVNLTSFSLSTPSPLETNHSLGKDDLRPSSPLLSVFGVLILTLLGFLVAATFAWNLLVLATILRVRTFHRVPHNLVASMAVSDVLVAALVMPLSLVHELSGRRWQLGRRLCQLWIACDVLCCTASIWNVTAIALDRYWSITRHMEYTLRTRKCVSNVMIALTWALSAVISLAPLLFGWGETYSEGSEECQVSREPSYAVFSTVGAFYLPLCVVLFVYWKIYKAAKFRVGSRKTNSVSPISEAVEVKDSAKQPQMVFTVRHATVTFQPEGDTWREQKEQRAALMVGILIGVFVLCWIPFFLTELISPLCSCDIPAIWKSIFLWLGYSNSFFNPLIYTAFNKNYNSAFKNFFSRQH
For the compound `NC(=O)C1CSC(c2ccccc2O)=N1` (racemic) [PULICATINS G], the inhibition constant (Ki) is more than 10 µM.
Still for that read-out and setting: next, `OC[C@@H]1CSC(c2ccccc2O)=N1` [AERUGINE]: more than 10 µM.

The target of the next test is T1, 5-hydroxytryptamine receptor 2A. The experiment in a line: Displacement of [3H]Ketanserin from 5-HT2A (unknown origin) receptor after 90 mins by microbeta scintillation counting analysis.
Turning to `Oc1ccccc1C1=NC(Cc2c[nH]cn2)CS1` (racemic), the Ki is more than 10 µM.

A further test has as its target T10, 5-hydroxytryptamine receptor 1A (Homo sapiens, UniProt P08908).
T10 sequence (P08908 whole entry): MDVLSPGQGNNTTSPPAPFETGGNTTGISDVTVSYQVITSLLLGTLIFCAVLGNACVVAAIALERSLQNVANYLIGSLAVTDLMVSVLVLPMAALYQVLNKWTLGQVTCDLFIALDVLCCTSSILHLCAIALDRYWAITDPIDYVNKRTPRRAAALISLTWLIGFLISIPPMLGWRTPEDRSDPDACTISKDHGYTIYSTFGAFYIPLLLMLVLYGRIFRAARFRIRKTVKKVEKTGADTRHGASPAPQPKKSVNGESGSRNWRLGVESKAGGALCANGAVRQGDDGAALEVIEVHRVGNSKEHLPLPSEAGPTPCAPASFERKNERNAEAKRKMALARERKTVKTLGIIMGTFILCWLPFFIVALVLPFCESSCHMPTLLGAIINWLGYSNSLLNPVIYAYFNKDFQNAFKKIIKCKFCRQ
The experiment in a line: Antagonist activity at 5-HT1A receptor (unknown origin) by Tango assay. In kind it is functional.
The compound `COC(=O)[C@H](Cc1cnc[nH]1)NC(=O)[C@@H]1N=C(c2ccccc2O)S[C@@H]1C` displayed an IC50 of more than 10 µM.

The target in another test is T3, 5-hydroxytryptamine receptor 2C. The experiment in a line: Displacement of [3H]-Mesulergine from human 5-HT2C receptor expressed in HEKT cells after 90 mins by microbeta scintillation counting analysis. In kind it is cell-based.
`COC(=O)[C@H](Cc1cnc[nH]1)NC(=O)[C@@H]1N=C(c2ccccc2O)S[C@@H]1C`: the Ki was found to be 0.88 µM.
On to `Oc1ccccc1C1=NC(Cc2c[nH]cn2)CS1` (racemic), for which the Ki is more than 10 µM.

In another test the target is T6, 5-hydroxytryptamine receptor 2B. The experiment in a line: Displacement of [3H]-LSD from human 5-HT2B receptor expressed in HEK cells after 90 mins by microbeta scintillation counting analysis. In kind it is cell-based.
The compound `COC(=O)[C@H](Cc1cnc[nH]1)NC(=O)[C@@H]1N=C(c2ccccc2O)S[C@@H]1C` displayed a Ki of 1.4 µM.
Same read-out and setting: the result for `Oc1ccccc1C1=NC(Cc2c[nH]cn2)CS1` (racemic) reads 0.1 µM.

Another test has as its target T11, 5-hydroxytryptamine receptor 7 (Homo sapiens, UniProt P34969). The experiment in a line: Displacement of [3H]-LSD from human 5-HT7A receptor expressed in HEK cells after 90 mins by microbeta scintillation counting analysis. In kind it is cell-based.
`COC(=O)[C@H](Cc1cnc[nH]1)NC(=O)[C@@H]1N=C(c2ccccc2O)S[C@@H]1C` yielded a Ki of more than 10 µM.
In turn, `Oc1ccccc1C1=NC(Cc2c[nH]cn2)CS1` (racemic) yielded an inhibition constant (Ki) of 7.4 µM.

A further test concerns the target T9, 5-hydroxytryptamine receptor 5A. The test is described as follows: Displacement of [3H]-LSD from human 5-HT5A receptor expressed in Flp-In CHO cells after 90 mins by microbeta scintillation counting analysis. In kind it is cell-based.
Compound `COC(=O)[C@H](Cc1cnc[nH]1)NC(=O)[C@@H]1N=C(c2ccccc2O)S[C@@H]1C` displayed an inhibition constant Ki of more than 10 µM.
Same read-out and setting: next, `Oc1ccccc1C1=NC(Cc2c[nH]cn2)CS1` (racemic): more than 10 µM.

Another test has as its target T8, 5-hydroxytryptamine receptor 1B. The test is described as follows: Displacement of [3H]-LSD from human 5-HT1B receptor expressed in baculovirus infected Sf9 cells.
With `NC(=O)C1CSC(c2ccccc2O)=N1` (racemic) [PULICATINS G], the Ki was more than 10 µM.
In turn, `OC[C@@H]1CSC(c2ccccc2O)=N1` [AERUGINE] came in with a Ki of more than 10 µM.

For another test, the target named is T4, 5-hydroxytryptamine receptor 1D. The experiment in a line: Displacement of [3H]5-CT from human 5-HT1D receptor expressed in HEKT cells after 90 mins by microbeta scintillation counting analysis. In kind it is cell-based.
`COC(=O)[C@H](Cc1cnc[nH]1)NC(=O)[C@@H]1N=C(c2ccccc2O)S[C@@H]1C` showed a Ki of 0.53 µM.
`Oc1ccccc1C1=NC(Cc2c[nH]cn2)CS1` (racemic) displayed an inhibition constant (Ki) of 1.9 µM.

In another test the target is T11, 5-hydroxytryptamine receptor 7. The experiment in a line: Binding affinity to 5-HT7A receptor (unknown origin) by radioligand binding assay.
Consider `NC(=O)C1CSC(c2ccccc2O)=N1` (racemic) [PULICATINS G], for which the Ki was more than 10 µM.
Compound `OC[C@@H]1CSC(c2ccccc2O)=N1` [AERUGINE] displayed an inhibitory constant (Ki) of more than 10 µM.

(Values after ChEMBL document CHEMBL4190286, “Modulating the Serotonin Receptor Spectrum of Pulicatin Natural Products” (J Nat Prod, 2017).)
